We go through three compounds from patent US20140273139A1, “Direct Fermentation of Biomass to Fuel Precursors” (Innovative Metabolism Inc., priority 2013, published 2014).

Test [1] has as its system P. chrysosporium and K. marxianus. Briefly: Solid-state fermentation of corn stover by consortium in the presence of carbon monoxide. Particulars: 90% CO and 10% air, first 27 days. It is filed as cell-based, Phanerochaete chrysosporium / Kluyveromyces marxianus. Here is the method: In this example, solvent-producing fermentation was initiated by introduction of a mix of air and CO, a competitive inhibitor of cytochrome c oxidase. Corn stover was prepared as described in Example 7. A mixture of P. chrysosporium conidiospores and mycelia harvested from agar medium, and 1 ml of K. marxianus from an overnight culture in YPD broth were added to the stover. The mixture was transferred to the rotating drum of the solid-state bioreactor under sterile conditions. The bioreactor was sealed and placed in a 44° C. incubator.
Growth was established under aerobic conditions (10 ml/min of air was flowed through the bioreactor for 17 hours). Fermentation was initiated by flowing a mixture comprised of 90% CO and 10% air through the bioreactor. During the first 27 days productivity peaked at 2.3×10^−5 g solvent/hr/g biomass remaining and yield for the period was 5.7% of biomass consumed (FIG. 8).

Test [2] deals with P. chrysosporium. Briefly: Solid-state fermentation of corn stover by P. chrysosporium in the presence of carbon monoxide. In kind it is cell-based, Phanerochaete chrysosporium. Particulars: 10% air and 90% CO, through Day 44. Here is the method: In this example solvent fermentation was initiated by introduction of a mix of 10% air and 90% CO. Corn stover was prepared as described in Example 7. P. chrysosporium conidiospores and mycelia harvested from agar medium were added to the stover and the mixture was transferred to the rotating drum of the solid-state bioreactor under sterile conditions. The bioreactor was sealed and placed in a 44° C. incubator. The volume of gas flow remained constant at 10 ml/min for the entire experiment.
The fermentor was run aerobically for 45 hours to establish growth. Between hour 45 and Day 44 a gas mix comprised of 10% air and 90% CO was flowed through the system. Fungal metabolic activity was restored by flowing air through the system from Day 51-55. From Day 57-65 the fermentation was run anaerobically in the absence of CO. Fungal metabolic activity was again restored by aerobic growth from Day 65-68, and then anaerobic fermentation was continued from Day 68-82.

The test system of test [3] is P. chrysosporium. Briefly: Submerged liquid fermentation under reduced oxygen with the mitochondrial inhibitor rotenone (GC-MS, standard curves). It is filed as cell-based, Phanerochaete chrysosporium. The method, then: In this experiment P. chrysosporium was grown from conidiospores in submerged liquid culture. The growth medium was Highley's Basal salts [Wymelenberg, A. V., et al., The Phanerochaete chrysosporium secretome: database predictions and initial mass spectrometry peptide identifications in cellulose-grown medium. J Biotechnol, 2005. 118(1): p. 17-34.] supplemented with 0.1% yeast extract (YE) and 2% glucose. Conidiospores were inoculated in 50 ml of liquid medium in a 250 ml Erlenmyer flask which was then capped with a 3-piece fermentation lock to prevent evaporation of volatile products and to allow the culture to incubate in a reduced oxygen environment. The culture was incubated statically.
A large mass of fungus was produced and remained suspended near the top of the medium. Samples were collected, transferred to glass septum vials and heated to 60° C. Samples were analyzed on a 6890N GC system with a 5975 Mass Selective Detector (Agilent) using a PH Innowax column. […] Standard curves were performed for each solvent. The concentrations in the fermentation broth were determined to be 0.74 mM for acetone, 1.8 mM for isopropanol, and 1.9 mM for ethanol. This experiment provided the first indication that P. chrysosporium was capable of fermenting sugars to acetone and isopropanol.

The subject of test [4] is P. chrysosporium. Briefly: Submerged liquid fermentation in the presence of air and gaseous mitochondrial inhibitor (GC-MS of headspace). In kind it is cell-based, Phanerochaete chrysosporium. Particulars: aerobic culture, NO target concentration 1 μM, 2% glucose, 37° C. The method, then:
In this experiment P. chrysosporium was grown from conidiospores in submerged liquid culture. The growth medium was Highley's Basal salts [Wymelenberg, A. V., et al., The Phanerochaete chrysosporium secretome: database predictions and initial mass spectrometry peptide identifications in cellulose-grown medium. J Biotechnol, 2005. 118(1): p. 17-34.] supplemented with 0.1% yeast extract (YE) and 2% glucose. Conidiospores were inoculated in liquid medium in 3 neck flasks. The temperature was maintained at 37° C. The cultures were mixed using magnetic stir bars and gasses (air, nitrogen, and air supplemented with nitric oxide (NO)) were bubbled through the medium using stainless steel needles. Fungi were grown: 1) aerobically; 2) anaerobically; and 3) aerobically with NO delivered to a target concentration of 1 μM. Cultures were sampled daily and analyzed using GC-MS (FIG. 3). P. chrysosporium grew rapidly forming large, encapsulated masses of material.
The identity of the ethanol peak was confirmed by MS analysis. Samples were transferred to glass septum vials and heated to 60° C. A gas-tight syringe was used to sample 50 μl from the headspace. Samples were analyzed on a 6890N GC system with a 5975 Mass Selective Detector (Agilent) using a PH Innowax column.

Where [5] appears, read: rotenone-treated, reduced oxygen, static culture.

Turning to `[C-]#[O+]` [CO, carbon monoxide], in test [1], the solvents produced entry is reported as “Ethanol was the only solvent produced in significant quantities”. In test [1] (44° C.), the peak productivity is 2.3×10^−5 g solvent/hr/g biomass remaining and the solvent yield was 5.7 % of biomass consumed. In test [2], the “acetone share of solvent mix” value was 28%, the “ethanol share of solvent mix” value is 72% and the “isopropanol share of solvent mix” value is “only trace amounts”.

Take `C=C(C)[C@H]1Cc2c(ccc3c2O[C@@H]2COc4cc(OC)c(OC)cc4[C@@H]2C3=O)O1` [Rotenone, rotenone]: in test [3] (liquid culture, oxygen-limited conditions, glucose), the “solvents produced in the presence of the inhibitor” value is “production of acetone, isopropanol and ethanol”. Further, in test [3] (setting [5]), the “acetone concentration in the fermentation broth” value came to 0.74 mM, the “ethanol concentration in the fermentation broth” value came to 1.9 mM and the “isopropanol concentration in the fermentation broth” value came out at 1.8 mM.

As for nitric oxide, the “ethanol production by the culture” value in test [4] is reported as “appeared to enable ethanol production in the presence of dissolved oxygen”.
